{
  "source": "paper PMC3485228",
  "about": "“Structure-Based Engineering Increased the Catalytic Turnover Rate of a Novel Phenazine Prenyltransferase” (PLoS ONE, 2012)",
  "target": "T1, EpzP (Streptomyces virginiae, UniProt E5KWG9)",
  "T1 construct": "pET28a His6-tag, E. coli Rosetta2; tag thrombin-cleaved for structures (EpzPm: lysines reductively methylated, 18 of 19)",
  "T1 sequence (E5KWG9 1-302)": "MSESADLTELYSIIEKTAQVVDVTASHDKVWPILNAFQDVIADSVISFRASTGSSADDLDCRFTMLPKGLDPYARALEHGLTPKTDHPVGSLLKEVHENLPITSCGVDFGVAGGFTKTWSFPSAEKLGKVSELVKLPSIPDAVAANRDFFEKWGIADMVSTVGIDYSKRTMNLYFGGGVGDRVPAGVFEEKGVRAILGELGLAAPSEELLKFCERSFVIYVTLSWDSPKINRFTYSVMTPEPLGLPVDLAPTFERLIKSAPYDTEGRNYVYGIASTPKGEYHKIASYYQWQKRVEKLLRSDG",
  "assay": "X-ray crystal structure ([…] A)",
  "type": "binding",
  "conditions": "lysine-methylated EpzP; crystal soaked with 5 mM DMSPP, hydrolysed to SPP; diphosphate site; acidic pH",
  "data": [
    {"smiles": "O=P(O)(O)OP(=O)(O)S", "note": "(stereo not shown) [S-thiolodiphosphate]", "values": [
      {"measurement": "X-ray crystal structure (1.67 A)", "value": "revealed the presence of a S-thiolodiphosphate (SPP) moiety in the diphosphate binding site"}
    ]}
  ]
}
